Data taken from US20120157494A1, “ISOINDOLYL COMPOUNDS” (priority 2010, published 2012).

Columns and labels:
hP2X7 = biological target: T1, hP2X7 (Homo sapiens, UniProt Q99572); experiment: Intracellular Calcium Flux (FLIPR) Assay; format: cell-based; settings: 1321N1 cells stably expressing human P2X7; agonist 100 μM BzATP; 20 min equilibration with antagonist; read-out: FLIPR pIC50 hP2X7-1321n1 (converted)
T1 construct: 1321N1 cells stably expressing the full length human P2X7 gene (1321N1-hP2X7); expressed in transfected cells
T1 sequence (Q99572 1-595): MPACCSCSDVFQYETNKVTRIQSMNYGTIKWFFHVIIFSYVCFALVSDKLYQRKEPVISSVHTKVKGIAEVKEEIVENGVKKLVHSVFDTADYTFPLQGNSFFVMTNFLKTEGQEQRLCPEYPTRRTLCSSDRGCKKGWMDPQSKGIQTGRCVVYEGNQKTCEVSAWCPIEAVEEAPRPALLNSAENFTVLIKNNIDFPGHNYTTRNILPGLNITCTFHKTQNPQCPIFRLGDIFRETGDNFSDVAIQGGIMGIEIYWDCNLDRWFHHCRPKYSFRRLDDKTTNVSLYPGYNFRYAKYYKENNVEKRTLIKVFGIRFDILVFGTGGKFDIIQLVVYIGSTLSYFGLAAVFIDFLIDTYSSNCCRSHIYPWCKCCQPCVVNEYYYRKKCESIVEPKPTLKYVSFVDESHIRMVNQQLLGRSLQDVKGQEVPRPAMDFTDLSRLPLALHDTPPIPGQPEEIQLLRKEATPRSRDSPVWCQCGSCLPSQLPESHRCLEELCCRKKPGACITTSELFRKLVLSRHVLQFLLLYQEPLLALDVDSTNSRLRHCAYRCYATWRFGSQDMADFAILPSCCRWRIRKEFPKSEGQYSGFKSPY
Protocol: Stock solutions of compounds were prepared from powders as a 10 mM DMSO stock solution. These solutions were stored at RT during the two week period of these experiments to prevent freeze-thaw of the DMSO stocks. The DMSO stocks were added to the appropriate assay buffer at a concentration of 10 μM, and then diluted serially to the final concentrations that were tested. No observable precipitate was formed at any time during this process. The aqueous solutions of compounds as well as ATP (Sigma A7699) and BzATP (Sigma B6396) were prepared fresh for each day of experiment.
1321N1 cells stably expressing the full length human P2X7 gene (1321N1-hP2X7) and HEK293 cells stably expressing the full length rat P2X7 gene (HEK293-rP2X7) were obtained from the Roche Cell Culture Facility. 1321N1-hP2X7 cells were grown in Dulbecco's Modified Eagle's Medium (DMEM) high glucose supplemented with 10% FBS and 250 μg/mL G418. HEK293-rP2X7 cells were grown in DMEM/F-12 supplemented with 10% FBS, 1 mM CaCl2, 2 mM MgCl2, 2 mM L-Glutamine and 500 μg/ml G418. Cells were split such that they never became >70% confluent.
On the day prior to the experiment, 1321N1-hP2X7 or HEK293-rP2X7 cells were released into suspension with calcium-free PBS+Versene and washed by centrifugation with calcium-free PBS to remove the Versene. Cells were resuspended in growth medium at a density of 2.5×10^5 cells/mL and seeded into black walled, clear bottom 96 well plates (50,000 cells/well) approximately 18 hr prior to intracellular calcium flux experiments.
On the day of the experiment, plates were washed with FLIPR buffer (calcium- and magnesium-free Hank's Balanced Salt Solution (HBSS) supplemented with 10 mM Hepes, 2.5 mM probenecid and 2 mM calcium chloride) using a BIO-TEK 96 channel plate washer and incubated with […] fluo-3 dye at 37° C. for one hr. The dye was then removed by plate washing and the cells were allowed to equilibrate for 20 min at room temperature with antagonist or vehicle (FLIPR buffer). Agonist (100 μM BzATP final concentration for hP2X7; 5 μM BzATP final concentration or rP2X7) was added online with the FLIPR and fluorescence measurements made at 1 sec intervals for 60 sec followed by 3 sec intervals for a further 4 min (5 min total). A final addition of 5 μM ionomycin was made and the maximal BzATP-evoked fluorescence normalized to the maximal ionomycin-evoked fluorescence.

- melting point: 131 to 132 °C
- IC50 (hP2X7): 389 nM
Compound: COC[C@@H](C)N1Cc2c(ccc(Cl)c2NC(=O)Cc2ccc(F)c(C(F)(F)F)c2)C1=O [Compound I-21, N-[5-Chloro-2-((R)-2-methoxy-1-methyl-ethyl)-1-oxo-2,3-dihydro-1H-isoindol-4-yl]-2-(4-fluoro-3-trifluoromethyl-phenyl)-acetamide]
